{"source": "patent US20260284082A1", "about": "“TARGETING THE PANX1-P2Y2R-TRPV4 PATHWAY TO TREAT LUNG ISCHEMIA-REPERFUSION INJURY” (UNIVERSITY OF VIRGINIA PATENT FOUNDATION, priority 2023, published 2026)", "key": {"[1]": {"tested_on": "porcine transplantation model of lung IRI", "test": "Porcine left lung transplant model of lung IRI", "format": "in vivo, swine", "settings": "for left lung-specific PaO2/FiO2 ratio: 1 mg/kg i.v., mean±SD", "description": "The University of Virginia's Animal Care and Use Committee approved this study, protocol 4262 (approved 10/23/2021). All procedures were performed in compliance with the National Institutes of Health 1996 Guide for the Care and Use of Laboratory Animals. Ten farm-raised, domestic swine of both sexes (31.6-60.0 kg weight range) were utilized. Animals were randomized to one of two groups (n=5/group). […] GSK219 or vehicle was administered as a systemic, intravenous infusion (100 ml volume over a 30-min period via central venous line placed in the left external jugular vein) beginning after the recipient animal's left pulmonary artery (PA) was clamped (i.e. at the time of recipient lung explant; approximately 40 min prior to initiation of graft reperfusion). All infusions were completed prior to reperfusion of the implanted lung.\nA porcine left lung transplant model was utilized as previously described by our laboratory^18, with modifications as described here. On day 1, the donor animal was sedated and intubated. General anesthesia was maintained while animals were ventilated with 100% oxygen to measure baseline parameters. Lungs were ventilated to a tidal volume of 8.0 mL/kg with a respiratory rate of 22 breaths/min and a positive end-expiratory pressure of 5.0 cm H2O. Intravenous heparin (200 IU/kg, APP Pharmaceuticals, Schaumburg, IL) was administered.\nDonor animals underwent a median sternotomy and pericardiotomy to expose the heart, great vessels, and lungs. Prostaglandin E1 ([…], Pfizer, New York, NY) was injected into the main PA. […] The lungs were then flushed with 1 L room temperature heparinized Perfadex (XVIVO Perfusion. Inc, Englewood, CO; 10,000 IU heparin per liter) via the cardioplegia cannula. At this point the lungs underwent 30 min of warm ischemia. At the conclusion of warm ischemia, the thoracic cavity was filled with cold (4° C.) slush, and lungs were flushed with an additional 1 L cold Perfadex via the main PA. At mid-inspiration, the trachea was clamped, and the heart-lung bloc was explanted. The lungs were then flushed retrograde with an additional IL cold Perfadex and placed in 4° C. cold storage for 24 hrs.\nOn day 2, recipient animals were anesthetized and ventilated as above for donor animals. A left thoracotomy was performed. and the left lung hilum was exposed. Central arterial and venous access was obtained for monitoring. Left pneumonectomy and left lung transplantation were performed as previously described.^18 Lung function was monitored during 4 hours of reperfusion while the left thoracotomy remained open. Combined (left and right) lung compliance was monitored throughout reperfusion. Airway pressure measurements and partial pressure of arterial oxygen (PaO2; systemic arterial as well as direct left pulmonary vein samples for graft-specific oxygenation) were obtained after 15 minutes, 1 hour and hourly thereafter. […] PaO2, PaCO2, and pH were measured using an i-STAT handheld blood analyzer (Abbott Point of Care, Princeton, NJ). After 4 hours of reperfusion, the animal was euthanized, and the heart-lung bloc was excised.\nAfter completion of reperfusion, small peripheral samples of the transplanted left lungs were tied off, and fresh tissue samples were collected from the left upper lobe, the left lingula, and left lower lobe. The same surgeon collected all samples from consistent, peripheral, dependent locations of each lobe in all animals. These samples were either used fresh or flash-frozen in liquid nitrogen and stored at −80° C.\nFresh lung samples were patted dry, weighed, and dried in a vacuum oven at 56° C. until the weight stabilized (typically 3-4 days). Lung wet/dry weight ratios were then calculated to assess edema.\nAfter collection of fresh lung samples, the left upper lobe was lavaged using 40 ml normal saline. Total cell counts and differential cell counts in BAL fluid were performed by the University of Virginia Clinical Laboratory in a blinded fashion. […]"}, "[2]": {"tested_on": "TRPV4", "settings": "cited from earlier work"}, "[3]": {"settings": "after 4 hours of reperfusion, vs vehicle"}, "[4]": {"settings": "after reperfusion, vs vehicle, P<0.05"}, "[5]": {"settings": "after reperfusion, vs vehicle, trended lower"}}, "data": [{"compound": "O=C(NC1(c2ccccc2)CC1)c1c(CN2CCC(N3CCCCC3)CC2)c(-c2cccc(C(F)(F)F)c2)nc2cc(Br)ccc12", "note": "[GSK219, GSK2193874]", "values": [{"measurement": "adverse effects of administration", "setting": "[1]; 1 mg/kg i.v. infusion over 30 min to recipient, 4 h reperfusion", "result": "no adverse effects"}, {"measurement": "left lung-specific PaO2/FiO2 ratio", "setting": "[1]; 3 hours of reperfusion, vehicle 85.4±17.2, P=0.026", "result": "276±57", "unit": "mmHg"}, {"measurement": "left lung-specific PaO2/FiO2 ratio", "setting": "[1]; 4 hours of reperfusion, vehicle 104±28.6, P=0.003", "result": "303±37", "unit": "mmHg"}, {"measurement": "left lung wet/dry weight ratios", "setting": "[1]; [3]", "result": "no significant differences"}, {"measurement": "overall lung histology by H&E staining", "setting": "[1]; [3]", "result": "significantly improved"}, {"measurement": "wet/dry weight ratios of the left lingula and left lower lobe", "setting": "[1]; [3]", "result": "trend lower"}, {"measurement": "neutrophils in BAL fluid (percent of total cells, differential cell count)", "setting": "[1]; after reperfusion, vehicle 80.2±1.4%, P=0.004", "result": "61.8±4.4", "unit": "%"}, {"measurement": "Ang-2 in plasma", "setting": "[1]; after reperfusion, vs vehicle", "result": "significantly reduced"}, {"measurement": "HMGB1 in BAL fluid", "setting": "[1]; after reperfusion, vs vehicle", "result": "significantly reduced"}, {"measurement": "ICAM-1 in plasma", "setting": "[1]; after reperfusion, vs vehicle", "result": "not significantly different"}, {"measurement": "IL-1β in BAL fluid", "setting": "[1]; after reperfusion, vs vehicle", "result": "not significantly altered"}, {"measurement": "IL-8 in BAL fluid", "setting": "[1]; after reperfusion, vs vehicle", "result": "significantly reduced"}, {"measurement": "P-selectin in plasma", "setting": "[1]; after reperfusion, vs vehicle", "result": "not significantly different"}, {"measurement": "VCAM-1 in plasma", "setting": "[1]; after reperfusion, vs vehicle", "result": "not significantly different"}, {"measurement": "ZO-1 in plasma", "setting": "[1]; after reperfusion, vs vehicle", "result": "significantly reduced"}, {"measurement": "ZO-2 in BAL fluid", "setting": "[1]; after reperfusion, vs vehicle", "result": "not significantly different but trended lower"}, {"measurement": "ZO-2 in plasma", "setting": "[1]; after reperfusion, vs vehicle", "result": "but not occludin (FIG. 23A) or ZO-2 (FIG. 23D) were significantly reduced"}, {"measurement": "claudin-5 in plasma", "setting": "[1]; after reperfusion, vs vehicle", "result": "significantly reduced"}, {"measurement": "occludin in plasma", "setting": "[1]; after reperfusion, vs vehicle", "result": "but not occludin (FIG. 23A) or ZO-2 (FIG. 23D) were significantly reduced"}, {"measurement": "ZO-1 in BAL fluid", "setting": "[1]; [4]", "result": "significantly reduced"}, {"measurement": "claudin-5 in BAL fluid", "setting": "[1]; [4]", "result": "significantly reduced"}, {"measurement": "occludin in BAL fluid", "setting": "[1]; [4]", "result": "significantly reduced"}, {"measurement": "P-selectin in BAL fluid", "setting": "[1]; after reperfusion, vs vehicle, P=0.0075", "result": "significantly reduced"}, {"measurement": "ICAM-1 in BAL fluid", "setting": "[1]; [5]", "result": "No significant changes"}, {"measurement": "VCAM1 in BAL fluid", "setting": "[1]; [5]", "result": "No significant changes"}, {"measurement": "reduction of neutrophil infiltration (immunohistochemistry of lung sections, neutrophils per HPF)", "setting": "[1]; compared to vehicle control, P<0.0001", "result": 70, "unit": "%"}, {"measurement": "systemic arterial PaO2/FiO2 ratio", "setting": "[1]; during reperfusion, vs vehicle", "result": "improved during reperfusion in the GSK-treated group, although this was not significant"}, {"measurement": "histologic score for polymorphonuclear neutrophils per high-powered field (PMNs/HPF)", "setting": "[1]; left lower lobe after reperfusion, vs vehicle, P=0.028", "result": "significantly improved"}, {"measurement": "histologic composite lung injury score", "setting": "[1]; left lower lobe after reperfusion, vs vehicle, P=0.041", "result": "significantly improved"}, {"measurement": "histologic score for alveolar edema", "setting": "[1]; left lower lobe after reperfusion, vs vehicle, P=0.048", "result": "significantly improved"}, {"measurement": "average pulmonary venous pH", "setting": "[1]; throughout reperfusion, vehicle 7.3±0.024, no significant difference", "result": "7.3±0.020"}, {"measurement": "average pulmonary venous PaCO2", "setting": "[1]; throughout reperfusion, vehicle 60.1±2.11, no significant difference", "result": "60.4±1.46", "unit": "mmHg"}, {"measurement": "reversibility of TRPV4 inhibition", "setting": "[2]", "result": "reversible"}]}]}
